Assay results published in patent publication US6673807B1, “Immunosuppressive imidazole derivatives and their combination preparations with tacrolimus or cyclosporins” (Fujisawa Pharmaceutical Co., Ltd., priority 1998, dated 2004).

Columns and labels:
[1] = tested on: production of nitric oxide in RAW264.7 cells; test: Assay for inhibitory activity on the production of nitric oxide (Griess, LPS + INFγ activated cells); format: cell-based, murine; conditions: Mus musculus; test compound 10^-5 M; RAW264.7 cells activated with LPS 1 μg/ml and INFγ 3 u/ml for 18-24 hours
Protocol: Test: Assay for Inhibitory Activity on the Production of Nitric Oxide
The murine macrophage cell line RAW264.7 (American Type Culture Collection, No. TIB71) was used in this study. RAW264.7 cells were grown on F75 plastic culture flasks at 37° C., 5% in Dulbecco's modified Eagle's medium (DMEM) supplemented with L-glutamine, penicillin, streptomycin and 10% heat-inactivated fetal bovine serum. They were removed from culture flasks by rubber cell scraper and were centrifuged and resuspended in DMEM without phenol red. They were plated in 96-well microtiter plates (10^5 cells per well) and allowed to adhere over 2 hours. The test samples were added and the cells were preincubated for 1 hour. Thereafter the cells were activated with both of lipopolysaccharide (LPS) (1 μg/ml) and interferon γ (INFγ) (3 u/ml) for 18-24 hours. An equal volume of Griess reagent (1% sulfanilamide/0.1% N-naphthylethylenediamine dihydrochloride/2.5% H3PO4) was added and the cells were incubated at room temperature for 10 minutes. The absorbance was read at 570 nm using microplate reader and NO2 was measured using NaNO2 as a standard.

[2] = tested on: rat cardiac allograft; test: Rat cardiac allograft survival (Lewis donor to ACI recipient, heterotopic intra-abdominal cardiac transplantation); format: in vivo; conditions: for MST (Median Survival Time): daily gastric intubation for 14 days
Protocol: Protective effect of the compound (f) or (g) combined with FK506 on rat cardiac allograft:
(§1) Experiments were performed on male Lewis and ACI rats weighing 175-200 g. Rats were anesthetized with sodium pentobarbital (50 mg/kg, i.p), and performed allogeneic (Lewis donor to ACI recipient) heterotopic intra-abdominal cardiac transplantation. Experimental groups were divided into single-drug group and combined-drug groups. Single-drug dose of FK506 was 0.32 mg/kg. Combined-dose groups were FK506(0.32 mg/kg)+the compound (f) (3.2 mg/kg), FK506(0.32 mg/kg)+the compound (f) (10 mg/kg), and FK506(0.32 mg/kg)+the compound (g) (10 mg/kg). The grafted hearts were monitored by daily palpation and complete rejection was defined as the cessation of palpable contractile activity. Drugs were suspended in a solution of 0.5% methylcellulose, and administered by daily gastric intubation in a volume of 5 ml/kg of body weight for 14 days. The blood samples were collected on 5 days after transplantation for analysis of nitrite/nitrate (NOx). The concentration of NOx in rat plasma was measured by using a spectrophotometric assay based upon the Griess reaction.

[3] = tested on: NOx in rat plasma; test: Concentration of nitrite/nitrate (NOx) in rat plasma after cardiac transplantation (Griess reaction); format: in vivo
Protocol: as §1

CCOc1ccc(-c2c(Cc3ccccc3)nc([C@H](Cc3ccccn3)NC(=O)c3cc4ccccc4[nH]3)n2C)cc1 [(a)]
inhibition at 10 µM [1]: 100%

Cn1c(-c2ccc([N+](=O)[O-])cc2)cnc1[C@H](Cc1ccccn1)NC(=O)c1cc2cc(Cl)ccc2[nH]1 [(b)]
inhibition at 10 µM [1]: 100%

Cn1c(-c2ccc([N+](=O)[O-])cc2)cnc1[C@H](CC(=O)Nc1ccccn1)NC(=O)c1cc2ccccc2[nH]1 [(c)]
inhibition at 10 µM [1]: 100%

COc1ccc(NC(=O)C[C@H](NC(=O)c2cc3ccccc3[nH]2)c2ncc(-c3ccc([N+](=O)[O-])cc3)n2C)cc1 [(d)]
inhibition at 10 µM [1]: 100%

Cn1c(-c2ccc([N+](=O)[O-])cc2)cnc1[C@H](CC(=O)Nc1ccc2c(c1)OCO2)NC(=O)c1cc2ccccc2[nH]1 [(e)]
inhibition at 10 µM [1]: 100%

Cn1c(-c2ccc(N3CCOCC3)cc2)cnc1[C@H](Cc1ccccn1)NC(=O)c1cc2cc(Cl)ccc2o1 [(g)]
inhibition at 10 µM [1]: 100% | MST (Median Survival Time) ([2]; Table 2, compound (g) 10 mg/kg + FK506 0.32 mg/kg): >30 days | graft survival ([2]; combination with FK506, rat cardiac allograft): dramatically prolonged | elevated NOx production during cardiac allograft rejection ([3]; rat cardiac allograft, in a dose-dependent manner): inhibited

C=CC[C@@H]1/C=C(\C)C[C@H](C)C[C@H](OC)[C@H]2O[C@@](O)(C(=O)C(=O)N3CCCC[C@H]3C(=O)O[C@H](/C(C)=C/[C@@H]3CC[C@@H](O)[C@H](OC)C3)[C@H](C)[C@@H](O)CC1=O)[C@H](C)C[C@@H]2OC [FK506, 17-allyl-1,14-dihydroxy-12-[2-(4-hydroxy-3-methoxycyclohexyl)-1-methylvinyl]-23,25-dimethoxy-13,19,21,27-tetramethyl-11,28-dioxa-4-azatricyclo[22.3.1.0^4,9]octacos-18-ene-2,3,10,16-tetraone, reference compound]
MST (Median Survival Time) ([2]; Table 1, FK506 0.32 mg/kg alone): 8.5 days | MST (Median Survival Time) ([2]; Table 2, FK506 0.32 mg/kg alone): 10 days | NOx ([3]; Table 1, FK506 0.32 mg/kg alone, rat plasma, 5 days after transplantation): >40 µM
